Reference: patent publication US20230085307A1, “PYRIDAZINONE COMPOUND AND HERBICIDE” (NISSAN CHEMICAL CORPORATION, priority 2019, published 2023)

Columns and labels:
[1] = test system: late watergrass; assay: Test Example 2: herbicidal activity, application during weed generation under submerged conditions (Table 17, symbol A); format: in vivo, late watergrass (Echinochloa oryzicola); conditions: AAH 285 g/ha; application during weed generation, submerged conditions
Procedure: (§1) [Test Example 2] Herbicidal Activity Test by Application during Weed Generation under Submerged Conditions After alluvial soil was placed into 1/10000 are of Wagner pot, water was poured and mixed to form a submerged condition having a water depth of 4 cm. Seeds of late watergrass, Japanese bulrush, and oval-leafed pondweed were sowed in a mixed manner in the aforementioned pot, and the pot was placed in a greenhouse at 25° C. to 30° C. for growth of the plants. When late watergrass, Japanese bulrush, and oval-leafed pondweed were grown to one leaf stage to two leaf stage, the emulsion agent of the compound of the present invention prepared according to Formulation Example 2 was diluted with water so as to achieve a predetermined herbicide amount, and the diluted emulsion agent was applied to the surface of the water. Three weeks after the herbicide application, the effect of the herbicide on each plant was evaluated according to the criteria of Test Example 1.

[2] = test system: barnyard grass; assay: Test Example 5: herbicidal effect by foliage application, plastic box (Table 20, symbol H); format: in vivo, barnyard grass (Echinochloa crus-galli); conditions: foliage application, 285 g/ha, three weeks after application
In short: (§2)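 Foliar spray test: emulsion formulation diluted in water to a set application rate, sprayed onto 14-day-old plants raised in diluvial soil at 25° C to 30° C under glass. Both herbicidal effect and crop effect rated visually three weeks later.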

[3] = test system: persian speedwell; assay: Test Example 5: herbicidal effect by foliage application, plastic box (Table 20, symbol R); format: in vivo, Persian speedwell (Veronica persica); conditions: foliage application, 285 g/ha, three weeks after application
In short: as §2

[4] = test system: velvetleaf; assay: Test Example 5: herbicidal effect by foliage application, plastic box (Table 20, symbol M); format: in vivo, velvetleaf (Abutilon theophrasti); conditions: foliage application, 285 g/ha, three weeks after application
In short: as §2

[5] = test system: chickweed; assay: Test Example 5: herbicidal effect by foliage application, plastic box (Table 20, symbol P); format: in vivo, common chickweed (Stellaria media); conditions: foliage application, 285 g/ha, three weeks after application
In short: as §2

[6] = test system: lambsquarters; assay: Test Example 5: herbicidal effect by foliage application, plastic box (Table 20, symbol O); format: in vivo, lambsquarters (Chenopodium album); conditions: foliage application, 285 g/ha, three weeks after application
In short: as §2

[7] = test system: barnyard grass; assay: Test Example 3: herbicidal effect by foliage application, Wagner pot (Table 18, symbol H); format: in vivo, barnyard grass (Echinochloa crus-galli); conditions: amount of applied herbicide 285 g/ha
In short: (§3)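 Plants were sown in alluvial soil held under 0.1–0.5 cm standing water and grown 14 days in a greenhouse at 25–30 °C. An emulsifiable formulation, water-diluted to the set dose, was then sprayed onto the foliage, and effects were scored three weeks later using previously defined criteria.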

[8] = test system: Chinese sprangletop; assay: Test Example 3: herbicidal effect by foliage application, Wagner pot (Table 18, symbol D); format: in vivo, chinese sprangletop (Leptochloa chinensis); conditions: amount of applied herbicide 285 g/ha
In short: as §3

[9] = test system: redroot pigweed; assay: Test Example 5: herbicidal effect by foliage application, plastic box (Table 20, symbol N); format: in vivo, redroot pigweed (Amaranthus retroflexus); conditions: foliage application, 285 g/ha, three weeks after application
In short: as §2

[10] = test system: green foxtail; assay: Test Example 5: herbicidal effect by foliage application, plastic box (Table 20, symbol G); format: in vivo, green foxtail (Setaria viridis); conditions: foliage application, 285 g/ha, three weeks after application
In short: as §2

[11] = test system: oval-leafed pondweed; assay: Test Example 2: herbicidal activity, application during weed generation under submerged conditions (Table 17, symbol C); format: in vivo, oval-leafed pondweed (Monochoria vaginalis); conditions: AAH 285 g/ha; application during weed generation, submerged conditions
Procedure: as §1

[12] = test system: windgrass; assay: Test Example 5: herbicidal effect by foliage application, plastic box (Table 20, symbol L); format: in vivo, windgrass (Apera spica-venti); conditions: foliage application, 285 g/ha, three weeks after application
In short: as §2

[13] = test system: southern crabgrass; assay: Test Example 5: herbicidal effect by foliage application, plastic box (Table 20, symbol F); format: in vivo, southern crabgrass (Digitaria ciliaris); conditions: foliage application, 285 g/ha, three weeks after application
In short: as §2

[14] = test system: Japanese bulrush; assay: Test Example 2: herbicidal activity, application during weed generation under submerged conditions (Table 17, symbol B); format: in vivo, Japanese bulrush (Schoenoplectus juncoides); conditions: AAH 285 g/ha; application during weed generation, submerged conditions
Procedure: as §1

[15] = test system: rice flat sedge; assay: Test Example 3: herbicidal effect by foliage application, Wagner pot (Table 18, symbol E); format: in vivo, rice flat sedge (Cyperus iria); conditions: amount of applied herbicide 285 g/ha
In short: as §3

[16] = test system: wild oat; assay: Test Example 5: herbicidal effect by foliage application, plastic box (Table 20, symbol I); format: in vivo, wild oat (Avena fatua); conditions: foliage application, 285 g/ha, three weeks after application
In short: as §2

[17] = test system: Italian ryegrass; assay: Test Example 5: herbicidal effect by foliage application, plastic box (Table 20, symbol K); format: in vivo, Italian ryegrass (Lolium multiflorum); conditions: foliage application, 285 g/ha, three weeks after application
In short: as §2

[18] = test system: blackgrass; assay: Test Example 5: herbicidal effect by foliage application, plastic box (Table 20, symbol J); format: in vivo, blackgrass (Alopecurus myosuroides); conditions: foliage application, 285 g/ha, three weeks after application
In short: as §2

CCOC(=O)OC(C)Oc1c(C)nn(C)c(=O)c1-c1c(-c2ccccc2OC)sc2cc(F)ccc12 (stereo not drawn) [3-029]
herbicidal effect rating, A: late watergrass [1]: 0 (Herbicidal rate of 5% or less (almost no effect)) | H: barnyard grass, herbicidal effect grade [2]: 4 (Herbicidal rate of 70% or more and less than 90%) | R: persian speedwell, herbicidal effect grade [3]: 0 (Herbicidal rate of 5% or less (almost no effect)) | M: velvetleaf, herbicidal effect grade [4]: 5 (Herbicidal rate of 90% or more (almost completely withered)) | P: chickweed, herbicidal effect grade [5]: 4 (Herbicidal rate of 70% or more and less than 90%) | O: lambsquarters, herbicidal effect grade [6]: 3 (Herbicidal rate of 40% or more and less than 70%) | herbicidal effect on H: barnyard grass [7]: 5 (Herbicidal rate of 90% or more (almost completely withered)) | herbicidal effect on D: Chinese sprangletop [8]: 3 (Herbicidal rate of 40% or more and less than 70%) | N: redroot pigweed, herbicidal effect grade [9]: 5 (Herbicidal rate of 90% or more (almost completely withered)) | G: green foxtail, herbicidal effect grade [10]: 5 (Herbicidal rate of 90% or more (almost completely withered)) | herbicidal effect rating, C: oval-leafed pondweed [11]: 1 (Herbicidal rate of 5% or more and less than 20%) | L: windgrass, herbicidal effect grade [12]: 4 (Herbicidal rate of 70% or more and less than 90%) | F: southern crabgrass, herbicidal effect grade [13]: 3 (Herbicidal rate of 40% or more and less than 70%) | herbicidal effect rating, B: Japanese bulrush [14]: 3 (Herbicidal rate of 40% or more and less than 70%) | herbicidal effect on E: rice flat sedge [15]: 5 (Herbicidal rate of 90% or more (almost completely withered)) | I: wild oat, herbicidal effect grade [16]: 1 (Herbicidal rate of 5% or more and less than 20%) | K: Italian ryegrass, herbicidal effect grade [17]: 3 (Herbicidal rate of 40% or more and less than 70%) | J: blackgrass, herbicidal effect grade [18]: 4 (Herbicidal rate of 70% or more and less than 90%)
